# Reference: patent publication US11590167B2, “Methods and compositions for use of therapeutic T cells in combination with kinase inhibitors” (Juno Therapeutics, Inc., priority 2016, dated 2023)
# Key:
# [1] = system: anti-CD19 CAR T cells; assay: Expression of CAR-T cell surface markers over 4 days after stimulation with irradiated K562-CD19 (flow cytometry); format: cell-based, human; conditions: four days after initial stimulation
# From the text: To generate CAR-expressing T cells, T cells were isolated by immunoaffinity-based enrichment from three healthy human donor subjects, and cells from each donor were activated and transduced with a viral vector encoding an anti-CD19 CAR. The CAR contained an anti-CD19 scFv, an Ig-derived spacer, a human CD28-derived transmembrane domain, a human 4-1BB-derived intracellular signaling domain and a human CD3 zeta-derived signaling domain. The nucleic acid construct encoding the CAR also included a truncated EGFR (tEGFR) sequence for use as a transduction marker, separated from the CAR sequence by a self-cleaving T2A sequence.
# CAR-expressing CD4+ and CD8+ cells were mixed 1:1 for each donor, individually, and the pooled cells for each donor assessed in vitro under various conditions.
# CAR-T cells generated as described above were plated at 100,000 cells/well on 96 well Poly-D-Lysine coated plates. Irradiated K562-CD19 target cells were added at an effector to target ratio of 2.5:1.
# [2] = system: anti-CD19 CAR T cells; assay: Cytokine production by anti-CD19 CAR T cells co-cultured with irradiated K562-CD19 (MSD); format: cell-based, human
# Description: CAR-T cells generated as described above were plated at 100,000 cells/well on 96 well Poly-D-Lysine coated plates. Irradiated target cells (K562-CD19) were added at an effector to target ratio of 2.5:1. […] Culture supernatants were harvested at day 2, 3 or 4, and IFNγ, IL-2 and TNFa were measured from the culture supernatants using cytokine kits from Meso Scale Discovery (MSD).
# [3] = system: anti-CD19 CAR-T cells; assay: Serial restimulation assay, expansion of anti-CD19 CAR-T cells; format: cell-based, human
# Description: The ability of cells to expand ex vivo following repeated stimulations in some aspects can indicate capacity of CAR-T cells to persist (e.g., following initial activation) and/or is indicative of function and/or fitness in vivo (Zhao et al. (2015) Cancer Cell, 28:415-28). Anti-CD19 CAR-T cells generated as described above were plated in triplicate at 100,000 cells/well on 96 well Poly-D-Lysine coated plates, and irradiated target cells (K562-CD19) were added at an effector to target ratio of 2.5:1. […] A total of 7 rounds of stimulation during a 25 day culture period were carried out.
# For each round of stimulation, the fold change in cell number and the number of doublings was determined. […] Expansion kinetics were similar in all treatment groups after three rounds of stimulation (day 11), as observed by fold change and number of population doublings. […] The cells derived from the two donors in which these differences were observed, generally, as compared to those derived from the other donor, performed less well in the serial restimulation assay in the absence of either inhibitor.
# [4] = system: CAR T cells; assay: Activation and memory markers of CAR T cells from the serial stimulation assay (flow cytometry); format: cell-based, human; conditions: days 0, 11, 18 and 21 of serial stimulation
# [5] = system: EGFRt+ CAR T cells and/or tumor cells; assay: CAR+ T cell and tumor cell counts in blood and bone marrow of Nalm-6 bearing mice; format: in vivo, NSG mice
# Description: (§1) NSG mice described in Example 2 were intravenously injected on day 0 with 5×10^5 Nalm-6 cells expressing firefly luciferase. […] A bridging experiment confirmed that administration of ibrutinib by drinking water was equivalent to oral gavage administration (data not shown). To permit assessment of the effect of a combination therapy with the inhibitor, a suboptimal dose of anti-CD19 CAR T cells was i.v. injected into the mice at 5×10^5/mouse at day 5. As a control, mice were administered the vehicle control without administration of the CAR-T cells or inhibitor.
# [6] = system: CAR+ T cells harvested from bone marrow; assay: Ex vivo immunophenotyping (t-SNE) of CAR+ T cells harvested from bone marrow; format: in vivo, NSG mice; conditions: day 12 post CAR T transfer
# Description: as §1
# Cells were assessed for surface markers CD44, CD45RA, CD62L, CD154, CXCR3, CXCR4, PD-1 by flow cytometry and T-distributed stochastic neighbor embedding (t-SNE) high dimensional analysis was performed using FlowJo software. […] Using multivariate t-SNE FACS analysis based on pooled analysis from three mice per group, 4 distinct population clusters were identified (FIG. 8B). FACs histograms showing the individual expression profiles of CD4, CD8, CD62L, CD45RA, CD44 and CXCR3 from the 4 gated t-SNE in FIG. 8A overlaid on the expression of the total population (shaded) is shown in FIG. 8C. […] Statistically significant differences are indicated as […] (*), P<0.01 (**), P<0.001 (***), P<0.0001 (****).
# [7] = target: T1, Itk (Homo sapiens, UniProt Q08881); conditions: reported, Byrd et al. 2016; cited from earlier work
# T1 sequence (Q08881 1-620): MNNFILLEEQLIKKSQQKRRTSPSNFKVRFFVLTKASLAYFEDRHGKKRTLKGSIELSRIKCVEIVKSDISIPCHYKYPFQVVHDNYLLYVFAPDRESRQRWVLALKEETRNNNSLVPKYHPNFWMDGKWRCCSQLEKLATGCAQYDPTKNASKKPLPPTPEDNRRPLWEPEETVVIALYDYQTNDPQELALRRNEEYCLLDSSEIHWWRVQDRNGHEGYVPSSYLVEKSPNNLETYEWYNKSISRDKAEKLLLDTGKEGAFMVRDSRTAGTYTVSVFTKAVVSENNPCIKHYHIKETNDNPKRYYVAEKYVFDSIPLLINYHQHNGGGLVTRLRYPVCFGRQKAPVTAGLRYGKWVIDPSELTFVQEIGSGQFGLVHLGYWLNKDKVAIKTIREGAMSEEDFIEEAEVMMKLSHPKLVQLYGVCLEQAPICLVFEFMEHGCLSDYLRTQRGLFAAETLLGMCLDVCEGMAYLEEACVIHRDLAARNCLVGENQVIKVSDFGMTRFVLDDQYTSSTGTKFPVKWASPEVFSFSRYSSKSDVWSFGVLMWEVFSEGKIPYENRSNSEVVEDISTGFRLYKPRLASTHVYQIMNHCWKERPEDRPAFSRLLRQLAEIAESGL
compound,measurement,setting,value
CC#CC(=O)N1CCC[C@H]1c1nc(-c2ccc(C(=O)Nc3ccccn3)cc2)c2c(N)nccn12 [compound of Formula (II)],phenotype of cells as central (TCM) or effector (TEM) memory subsets by CCR7 and CD45RA,[1],did not affect the phenotype of cells as central (TCM) or effector (TEM) memory subsets
same,"CAR T cytokine production (IFNγ, IL-2, TNFα) following stimulation with K562.CD19 cells","[2]; overall, three donors, culture supernatants, ibrutinib 0.5-500 nM, Formula (II) 50-5000 nM",did not inhibit CAR T cytokine production
same,cytokine production,"[2]; some donors, compound of Formula (II)",modestly increased cytokine production in some donors
same,expansion as measured by population doublings following multiple rounds of restimulation,"[3]; by day 18, CAR+ T cells from two of the three donors, each concentration assessed",observed to be enhanced
same,cell counts after five rounds of stimulation (day 18),"[3]; donor 3, highest concentration tested","Non-significant, increased cell counts"
same,"additional CAR T activation or memory markers (CD25, CD38, CD39, CD45RO, CD62L, CD69, CD107a, PD-1)",[4],No significant effects
same,tumor cells in the blood or bone marrow compared to CAR+ cells with vehicle alone,[5]; CAR+ cell treatment combined with inhibitor,significantly fewer tumor cells were detected
same,circulating CAR+ T cells compared to CAR+ T cells and vehicle,"[5]; blood, days 7, 12, 19 and 26 post CAR+ T cell transfer, drinking water 25 mg/kg/day",significant increase in circulating CAR+ T cells
same,number of cells in the blood,"[5]; day 19 post CAR-T cell transfer, ibrutinib p<0.05, Formula (II) p<0.001",significant increase in the number of cells in the blood
same,population 2 (CD8+CD44hiCXCR3hiCD45RAloCD62Lhi) and population 4 (CD4+CD44hiCXCR3intCD45RAhiCD62Lhi) compared to control mice,[6],An increase
same,population 2 as share of CAR-T cells,[6]; pooled from three mice,29.2%
same,population 4 as share of CAR-T cells,[6]; pooled from three mice,8.4%
same,lower affinity for ITK compared with ibrutinib,[7],> 200 times
